From PubChem BioAssay (NCI)
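Five concentrations, 48 hours, 96-well plates. TGI is the concentration that stops growth completely.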

How the values were obtained:
Test in all cases: DTP human tumour cell line panel, 48 h
HL-60(TB) leukemia = system: HL-60(TB) leukemia
MALME-3M melanoma = system: MALME-3M melanoma
M14 melanoma = system: M14 melanoma
SNB-19 CNS = system: SNB-19 CNS
CAKI-1 renal = system: CAKI-1 renal
HCT-15 colon = system: HCT-15 colon
HCT-116 colon = system: HCT-116 colon
TK-10 renal = system: TK-10 renal
M19-MEL melanoma = system: M19-MEL melanoma
DMS 114 small cell lung = system: DMS 114 small cell lung
OVCAR-5 ovarian = system: OVCAR-5 ovarian
NCI-H522 lung = system: NCI-H522 lung
SK-MEL-28 melanoma = system: SK-MEL-28 melanoma
EKVX NSCLC = system: EKVX NSCLC
HOP-62 NSCLC = system: HOP-62 NSCLC
SK-MEL-5 melanoma = system: SK-MEL-5 melanoma
U251 CNS = system: U251 CNS
SF-295 CNS = system: SF-295 CNS
HOP-92 NSCLC = system: HOP-92 NSCLC
ACHN renal = system: ACHN renal
SNB-75 CNS = system: SNB-75 CNS
KM20L2 colon = system: KM20L2 colon
MOLT-4 leukemia = system: MOLT-4 leukemia
UACC-62 melanoma = system: UACC-62 melanoma
CCRF-CEM leukemia = system: CCRF-CEM leukemia
HCC-2998 colon = system: HCC-2998 colon
SK-OV-3 ovarian = system: SK-OV-3 ovarian
OVCAR-4 ovarian = system: OVCAR-4 ovarian
OVCAR-8 ovarian = system: OVCAR-8 ovarian
NCI-H23 lung = system: NCI-H23 lung
SF-268 CNS = system: SF-268 CNS
KM12 colon = system: KM12 colon
786-0 renal = system: 786-0 renal
A549 NSCLC = system: A549 NSCLC
SF-539 CNS = system: SF-539 CNS
HOP-18 NSCLC = system: HOP-18 NSCLC
RXF 393 renal = system: RXF 393 renal
RPMI-8226 leukemia = system: RPMI-8226 leukemia
HT29 colon = system: HT29 colon
DMS 273 small cell lung = system: DMS 273 small cell lung
COLO 205 colon = system: COLO 205 colon
SW-620 colon = system: SW-620 colon
NCI-H460 lung = system: NCI-H460 lung
K-562 leukemia = system: K-562 leukemia
LXFL 529 NSCLC = system: LXFL 529 NSCLC
SN12C renal = system: SN12C renal
LOX IMVI melanoma = system: LOX IMVI melanoma
A498 renal = system: A498 renal
SK-MEL-2 melanoma = system: SK-MEL-2 melanoma
OVCAR-3 ovarian = system: OVCAR-3 ovarian
IGROV1 ovarian = system: IGROV1 ovarian
DLD-1 colon = system: DLD-1 colon
NCI-H226 lung = system: NCI-H226 lung
XF 498 CNS = system: XF 498 CNS
UO-31 renal = system: UO-31 renal
SR leukemia = system: SR leukemia
SNB-78 CNS = system: SNB-78 CNS
RXF-631 renal = system: RXF-631 renal
UACC-257 melanoma = system: UACC-257 melanoma

## Cc1cc(=O)oc2cc(OCc3nc4ccccc4c(=O)[nH]3)ccc12
HL-60(TB) leukemia
  TGI: > 100 µM
MALME-3M melanoma
  TGI: > 100 µM
M14 melanoma
  TGI: > 100 µM
SNB-19 CNS
  TGI: > 100 µM
CAKI-1 renal
  TGI: > 100 µM
HCT-15 colon
  TGI: > 100 µM
HCT-116 colon
  TGI: > 100 µM
TK-10 renal
  TGI: > 100 µM
M19-MEL melanoma
  TGI: > 100 µM
DMS 114 small cell lung
  TGI: > 100 µM
OVCAR-5 ovarian
  TGI: > 100 µM
NCI-H522 lung
  TGI: > 100 µM
SK-MEL-28 melanoma
  TGI: > 100 µM
EKVX NSCLC
  TGI: > 100 µM
HOP-62 NSCLC
  TGI: > 100 µM
SK-MEL-5 melanoma
  TGI: > 100 µM
U251 CNS
  TGI: > 100 µM
SF-295 CNS
  TGI: > 100 µM
HOP-92 NSCLC
  TGI: > 100 µM
ACHN renal
  TGI: > 100 µM
SNB-75 CNS
  TGI: > 100 µM
KM20L2 colon
  TGI: > 100 µM
MOLT-4 leukemia
  TGI: > 100 µM
UACC-62 melanoma
  TGI: > 100 µM
CCRF-CEM leukemia
  TGI: > 100 µM
HCC-2998 colon
  TGI: > 100 µM
SK-OV-3 ovarian
  TGI: > 100 µM
OVCAR-4 ovarian
  TGI: > 100 µM
OVCAR-8 ovarian
  TGI: > 100 µM
NCI-H23 lung
  TGI: > 100 µM
SF-268 CNS
  TGI: > 100 µM
KM12 colon
  TGI: > 100 µM
786-0 renal
  TGI: > 100 µM
A549 NSCLC
  TGI: > 100 µM
SF-539 CNS
  TGI: > 100 µM
HOP-18 NSCLC
  TGI: > 100 µM
RXF 393 renal
  TGI: > 100 µM
RPMI-8226 leukemia
  TGI: > 100 µM
HT29 colon
  TGI: > 100 µM
DMS 273 small cell lung
  TGI: > 100 µM
COLO 205 colon
  TGI: > 100 µM
SW-620 colon
  TGI: > 100 µM
NCI-H460 lung
  TGI: > 100 µM
K-562 leukemia
  TGI: > 100 µM
LXFL 529 NSCLC
  TGI: > 100 µM
SN12C renal
  TGI: > 100 µM
LOX IMVI melanoma
  TGI: > 100 µM
A498 renal
  TGI: > 100 µM
SK-MEL-2 melanoma
  TGI: > 100 µM
OVCAR-3 ovarian
  TGI: > 100 µM
IGROV1 ovarian
  TGI: > 100 µM
DLD-1 colon
  TGI: > 100 µM
NCI-H226 lung
  TGI: > 100 µM
XF 498 CNS
  TGI: > 100 µM

## CS/C(c1ccccc1)=[N+](/C)[O-]
HL-60(TB) leukemia
  TGI: > 100 µM
MALME-3M melanoma
  TGI: > 100 µM
M14 melanoma
  TGI: > 100 µM
SNB-19 CNS
  TGI: > 100 µM
CAKI-1 renal
  TGI: > 100 µM
HCT-15 colon
  TGI: 41.1 µM
HCT-116 colon
  TGI: > 100 µM
UO-31 renal
  TGI: > 100 µM
TK-10 renal
  TGI: > 100 µM
M19-MEL melanoma
  TGI: > 100 µM
OVCAR-5 ovarian
  TGI: > 100 µM
NCI-H522 lung
  TGI: > 100 µM
SR leukemia
  TGI: 47.6 µM
SK-MEL-28 melanoma
  TGI: > 100 µM
EKVX NSCLC
  TGI: > 100 µM
HOP-62 NSCLC
  TGI: > 100 µM
SK-MEL-5 melanoma
  TGI: > 100 µM
U251 CNS
  TGI: > 100 µM
SF-295 CNS
  TGI: > 100 µM
HOP-92 NSCLC
  TGI: > 100 µM
SNB-78 CNS
  TGI: > 100 µM
ACHN renal
  TGI: > 100 µM
SNB-75 CNS
  TGI: > 100 µM
KM20L2 colon
  TGI: > 100 µM
MOLT-4 leukemia
  TGI: > 100 µM
UACC-62 melanoma
  TGI: > 100 µM
CCRF-CEM leukemia
  TGI: > 81.8 µM
HCC-2998 colon
  TGI: > 100 µM
SK-OV-3 ovarian
  TGI: > 100 µM
OVCAR-4 ovarian
  TGI: > 100 µM
OVCAR-8 ovarian
  TGI: > 100 µM
NCI-H23 lung
  TGI: > 100 µM
SF-268 CNS
  TGI: > 100 µM
KM12 colon
  TGI: > 100 µM
RXF-631 renal
  TGI: > 100 µM
786-0 renal
  TGI: > 100 µM
A549 NSCLC
  TGI: > 100 µM
SF-539 CNS
  TGI: > 100 µM
HOP-18 NSCLC
  TGI: > 100 µM
RXF 393 renal
  TGI: > 100 µM
RPMI-8226 leukemia
  TGI: > 87.1 µM
HT29 colon
  TGI: > 100 µM
COLO 205 colon
  TGI: > 61.5 µM
SW-620 colon
  TGI: > 100 µM
NCI-H460 lung
  TGI: 99.4 µM
K-562 leukemia
  TGI: > 100 µM
LXFL 529 NSCLC
  TGI: > 100 µM
SN12C renal
  TGI: > 100 µM
LOX IMVI melanoma
  TGI: > 58.2 µM
A498 renal
  TGI: > 100 µM
SK-MEL-2 melanoma
  TGI: > 100 µM
UACC-257 melanoma
  TGI: > 100 µM
OVCAR-3 ovarian
  TGI: > 100 µM
IGROV1 ovarian
  TGI: > 100 µM
DLD-1 colon
  TGI: > 100 µM
XF 498 CNS
  TGI: > 100 µM

## c1ccc(SC(CCCCOC2CCCCO2)Sc2ccccc2)cc1 (centres undefined)
HL-60(TB) leukemia
  TGI: 47.5 µM
MALME-3M melanoma
  TGI: > 100 µM
M14 melanoma
  TGI: > 100 µM
SNB-19 CNS
  TGI: > 100 µM
CAKI-1 renal
  TGI: > 100 µM
HCT-15 colon
  TGI: > 100 µM
HCT-116 colon
  TGI: > 100 µM
UO-31 renal
  TGI: 76.5 µM
TK-10 renal
  TGI: > 100 µM
M19-MEL melanoma
  TGI: > 100 µM
DMS 114 small cell lung
  TGI: > 100 µM
OVCAR-5 ovarian
  TGI: > 100 µM
NCI-H522 lung
  TGI: 53.8 µM
SK-MEL-28 melanoma
  TGI: > 100 µM
EKVX NSCLC
  TGI: > 100 µM
HOP-62 NSCLC
  TGI: > 100 µM
SK-MEL-5 melanoma
  TGI: > 100 µM
U251 CNS
  TGI: > 100 µM
SF-295 CNS
  TGI: > 100 µM
HOP-92 NSCLC
  TGI: > 100 µM
SNB-78 CNS
  TGI: > 100 µM
ACHN renal
  TGI: > 100 µM
SNB-75 CNS
  TGI: > 100 µM
MOLT-4 leukemia
  TGI: > 100 µM
UACC-62 melanoma
  TGI: > 100 µM
CCRF-CEM leukemia
  TGI: 93.1 µM
HCC-2998 colon
  TGI: > 100 µM
SK-OV-3 ovarian
  TGI: > 100 µM
OVCAR-4 ovarian
  TGI: > 100 µM
OVCAR-8 ovarian
  TGI: > 100 µM
NCI-H23 lung
  TGI: > 100 µM
SF-268 CNS
  TGI: > 100 µM
KM12 colon
  TGI: > 100 µM
786-0 renal
  TGI: > 100 µM
A549 NSCLC
  TGI: > 100 µM
SF-539 CNS
  TGI: > 100 µM
RXF 393 renal
  TGI: > 100 µM
RPMI-8226 leukemia
  TGI: > 100 µM
HT29 colon
  TGI: > 100 µM
DMS 273 small cell lung
  TGI: > 100 µM
COLO 205 colon
  TGI: > 100 µM
SW-620 colon
  TGI: > 100 µM
NCI-H460 lung
  TGI: > 100 µM
K-562 leukemia
  TGI: > 100 µM
LXFL 529 NSCLC
  TGI: > 100 µM
SN12C renal
  TGI: > 100 µM
LOX IMVI melanoma
  TGI: > 100 µM
A498 renal
  TGI: > 100 µM
SK-MEL-2 melanoma
  TGI: > 100 µM
UACC-257 melanoma
  TGI: > 100 µM
OVCAR-3 ovarian
  TGI: > 100 µM
IGROV1 ovarian
  TGI: > 100 µM
DLD-1 colon
  TGI: > 100 µM
XF 498 CNS
  TGI: > 100 µM
